As a reminder, the EC50 is the concentration giving half of the maximal effect. A word on the Ki: it is the equilibrium dissociation constant of an inhibitor or competing ligand from its target.

Assay [1] can be described thus: C. albicans growth with fluconazole, confirmation, fluorescence, retest (AID 2467). The class given is functional, cell-based.
For assay [2], the system named is BJ. Put plainly: cytotoxicity toward BJ-TERT-LT-ST fibroblasts, dose response, cell-based, RAS-independent, luminescence (AID 1935).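 Further: BJ fibroblasts immortalized with TERT plus LT and ST oncogenes.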 The class given is functional. As to conditions: Homo sapiens.
Assay [3] in a line: cytotoxicity toward DRD oncogenic fibroblasts, dose response, cell-based, non-viral oncogenic, luminescence (AID 1934). The class given is functional. As to conditions: Homo sapiens.
Assay [4] deals with BJ. The assay can be described thus: cytotoxicity toward BJ-TERT fibroblasts, dose response, cell-based, RAS-independent, luminescence (AID 1933). The class given is functional. As to conditions: Homo sapiens.
The target in assay [5] is Interleukin-1 receptor-associated kinase 1 (Homo sapiens, UniProt P51617). The class given is functional.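 Further: IRAK1 tested as one member of a kinome panel.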
Assay [6] addresses Tyrosine-protein kinase Lyn (Homo sapiens, UniProt P07948). The class given is functional.
Assay [7] addresses Dual specificity protein kinase CLK2 (Homo sapiens, UniProt P49760). The class given is functional.
Assay [8] has as its target Tyrosine-protein kinase BTK (Homo sapiens, UniProt Q06187). The class given is functional.
In assay [9] the target is Tyrosine-protein kinase receptor TYRO3 (Homo sapiens, UniProt Q06418). The class given is functional.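 Further: TYRO3 value obtained as one member of a kinome-wide profiling panel.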
Assay [10] addresses Macrophage colony-stimulating factor 1 receptor (Homo sapiens, UniProt P07333). The class given is functional.
Assay [11] concerns the target Tyrosine-protein kinase Fyn (Homo sapiens, UniProt P06241). The class given is functional.
Assay [12] deals with Serine/threonine-protein kinase N2 (Homo sapiens, UniProt Q16513). The class given is functional.
Assay [13] concerns the target Calcium/calmodulin-dependent protein kinase type 1 (Homo sapiens, UniProt Q14012). The class given is functional.
The target in assay [14] is Lymphokine-activated killer T-cell-originated protein kinase (Homo sapiens, UniProt Q96KB5). The class given is functional.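 Further: value comes from a kinase panel screen in which TOPK was one of the panel members.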
The target in assay [15] is Serine/threonine-protein kinase PLK1 (Homo sapiens, UniProt P53350). The class given is functional.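 Further: PLK1 measured as one member of a kinome-wide profiling panel.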
Assay [16] concerns the target 3-phosphoinositide-dependent protein kinase 1 (Homo sapiens, UniProt O15530). The class given is functional.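 Further: value comes from the Navigating the Kinome panel, PDPK1 member.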
Assay [17] has as its target Mitogen-activated protein kinase 8 (Homo sapiens, UniProt P45983). The class given is functional.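 Further: value comes from one member of a kinome-wide kinase profiling panel.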
Assay [18] has as its target Casein kinase I isoform gamma-1 (Homo sapiens, UniProt Q9HCP0). The class given is functional.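 Further: measured as the CSNK1G1 member of a kinome profiling panel.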
The target in assay [19] is Tyrosine-protein kinase SYK (Homo sapiens, UniProt P43405). The class given is functional.
Assay [20] addresses Tyrosine-protein kinase Blk (Homo sapiens, UniProt P51451). The class given is functional.
In assay [21] the target is Proto-oncogene tyrosine-protein kinase ROS (Homo sapiens, UniProt P08922). The class given is functional.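 Further: ROS1 tested as one member of a kinome-wide kinase panel.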
Assay [22] concerns the target Mast/stem cell growth factor receptor Kit (Homo sapiens, UniProt P10721). The class given is functional.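 Further: KIT entry within a kinase panel assay.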
Assay [23] deals with Cyclin-dependent kinase 1 (Homo sapiens, UniProt P06493). The class given is functional.
The target in assay [24] is Cell division cycle 7-related protein kinase (Homo sapiens, UniProt O00311). The class given is functional.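 Further: value obtained from a kinome-wide kinase panel.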
Cell division cycle 7-related protein kinase, sequence (O00311 whole entry): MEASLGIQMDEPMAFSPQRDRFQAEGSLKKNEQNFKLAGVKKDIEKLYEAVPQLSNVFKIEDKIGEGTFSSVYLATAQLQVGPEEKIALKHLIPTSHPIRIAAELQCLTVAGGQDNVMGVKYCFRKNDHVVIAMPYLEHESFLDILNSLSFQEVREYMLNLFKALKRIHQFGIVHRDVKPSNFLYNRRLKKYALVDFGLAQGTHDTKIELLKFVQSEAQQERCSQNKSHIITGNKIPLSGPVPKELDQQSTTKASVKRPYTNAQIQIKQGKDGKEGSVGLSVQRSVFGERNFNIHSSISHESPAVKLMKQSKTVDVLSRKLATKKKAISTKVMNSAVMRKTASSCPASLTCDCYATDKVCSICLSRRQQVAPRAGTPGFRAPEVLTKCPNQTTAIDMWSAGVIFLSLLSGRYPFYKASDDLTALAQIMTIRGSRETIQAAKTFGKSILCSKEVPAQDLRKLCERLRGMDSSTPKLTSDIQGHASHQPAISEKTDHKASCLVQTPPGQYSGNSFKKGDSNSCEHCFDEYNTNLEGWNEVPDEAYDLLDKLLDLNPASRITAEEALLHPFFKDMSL
For assay [25], the target named is Serine/threonine-protein kinase pim-3 (Homo sapiens, UniProt Q86V86). The class given is functional.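 Further: value obtained as one member of a broad kinase panel profiling effort.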
Assay [26] concerns the target RAC-alpha serine/threonine-protein kinase (Homo sapiens, UniProt P31749). The class given is functional.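 Further: AKT1 affinity measured as one member of a kinome-wide kinase profiling panel.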
For assay [27], the target named is Tyrosine-protein kinase Lck (Homo sapiens, UniProt P06239). The class given is functional.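 Further: lck was assayed as one member of a kinase panel.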
Assay [28] has as its target Serine/threonine-protein kinase 3 (Homo sapiens, UniProt Q13188). The class given is functional.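 Further: measured as one member of a kinome-wide kinase panel.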
Assay [29] has as its target Protein kinase C gamma type (Homo sapiens, UniProt P05129). The class given is functional.
The target in assay [30] is Insulin receptor (Homo sapiens, UniProt P06213). The class given is functional.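 Further: insulin receptor kinase tested as one member of a kinome-wide kinase panel.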
The target in assay [31] is Serine/threonine-protein kinase DCLK1 (Homo sapiens, UniProt O15075). The class given is functional.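 Further: affinity for DCLK1 (listed as DCAMKL1) measured as one member of a kinome-wide kinase profiling panel.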
The target of assay [32] is Fibroblast growth factor receptor 3 (Homo sapiens, UniProt P22607). The class given is functional.
For assay [33], the target named is Mitogen-activated protein kinase 9 (Homo sapiens, UniProt P45984). The class given is functional.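 Further: value from a kinome panel profiling assay, MAPK9 panel entry.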
The target in assay [34] is Casein kinase I isoform alpha (Homo sapiens, UniProt P48729). The class given is functional.
Assay [35] deals with Protein kinase C delta type (Homo sapiens, UniProt Q05655). The class given is functional.
Protein kinase C delta type, sequence (Q05655 whole entry): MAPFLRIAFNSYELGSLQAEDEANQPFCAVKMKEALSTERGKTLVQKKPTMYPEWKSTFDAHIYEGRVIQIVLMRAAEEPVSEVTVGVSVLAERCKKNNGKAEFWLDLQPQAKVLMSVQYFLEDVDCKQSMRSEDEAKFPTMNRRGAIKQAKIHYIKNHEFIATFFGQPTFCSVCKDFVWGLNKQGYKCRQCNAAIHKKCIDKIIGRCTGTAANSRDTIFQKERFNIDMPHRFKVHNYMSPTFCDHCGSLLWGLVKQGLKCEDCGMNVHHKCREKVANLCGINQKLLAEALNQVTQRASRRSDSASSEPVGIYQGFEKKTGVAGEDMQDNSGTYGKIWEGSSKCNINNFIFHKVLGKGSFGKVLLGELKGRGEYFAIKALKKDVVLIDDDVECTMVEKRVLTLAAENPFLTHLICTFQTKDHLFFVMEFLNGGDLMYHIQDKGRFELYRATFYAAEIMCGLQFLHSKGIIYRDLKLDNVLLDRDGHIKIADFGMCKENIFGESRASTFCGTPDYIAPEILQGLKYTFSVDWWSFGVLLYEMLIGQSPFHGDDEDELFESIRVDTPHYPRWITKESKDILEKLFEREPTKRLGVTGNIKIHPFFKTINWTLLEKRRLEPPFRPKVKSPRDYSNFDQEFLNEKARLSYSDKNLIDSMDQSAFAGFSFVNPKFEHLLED
Assay [36] has as its target Serine/threonine-protein kinase MRCK alpha (Homo sapiens, UniProt Q5VT25). The class given is functional.
In assay [37] the target is Calcium/calmodulin-dependent protein kinase type II subunit delta (Homo sapiens, UniProt Q13557). The class given is functional.
Assay [38] deals with Serine/threonine-protein kinase Nek4 (Homo sapiens, UniProt P51957). The class given is functional.
Assay [39] has as its target Protein kinase C iota type (Homo sapiens, UniProt P41743). The class given is functional.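 Further: measured within a kinome-wide kinase panel, PRKCI as panel member.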
Assay [40] deals with Testis-specific serine/threonine-protein kinase 1 (Homo sapiens, UniProt Q9BXA7). The class given is functional.
Testis-specific serine/threonine-protein kinase 1, sequence (Q9BXA7 whole entry): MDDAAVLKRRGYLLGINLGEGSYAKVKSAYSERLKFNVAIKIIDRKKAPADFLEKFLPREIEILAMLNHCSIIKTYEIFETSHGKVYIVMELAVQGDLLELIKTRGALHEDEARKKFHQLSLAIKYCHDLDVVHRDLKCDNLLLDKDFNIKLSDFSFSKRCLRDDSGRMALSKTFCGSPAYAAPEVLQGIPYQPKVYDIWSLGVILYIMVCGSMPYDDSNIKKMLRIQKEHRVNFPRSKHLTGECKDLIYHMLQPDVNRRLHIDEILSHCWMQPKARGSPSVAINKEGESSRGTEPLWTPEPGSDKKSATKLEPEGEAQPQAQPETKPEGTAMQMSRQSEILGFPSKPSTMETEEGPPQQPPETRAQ
Assay [41] concerns the target Insulin-like growth factor 1 receptor (Homo sapiens, UniProt P08069). Put plainly: Navigating the Kinome. Panel member name: IGF1R. The class given is functional.
In assay [42] the target is Proto-oncogene tyrosine-protein kinase Src (Homo sapiens, UniProt P12931). The class given is functional.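 Further: SRC entry within a kinome-wide kinase profiling panel.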

Calls of active or inactive are those of the source.

Casein kinase I isoform gamma-1, sequence (Q9HCP0 whole entry, canonical isoform): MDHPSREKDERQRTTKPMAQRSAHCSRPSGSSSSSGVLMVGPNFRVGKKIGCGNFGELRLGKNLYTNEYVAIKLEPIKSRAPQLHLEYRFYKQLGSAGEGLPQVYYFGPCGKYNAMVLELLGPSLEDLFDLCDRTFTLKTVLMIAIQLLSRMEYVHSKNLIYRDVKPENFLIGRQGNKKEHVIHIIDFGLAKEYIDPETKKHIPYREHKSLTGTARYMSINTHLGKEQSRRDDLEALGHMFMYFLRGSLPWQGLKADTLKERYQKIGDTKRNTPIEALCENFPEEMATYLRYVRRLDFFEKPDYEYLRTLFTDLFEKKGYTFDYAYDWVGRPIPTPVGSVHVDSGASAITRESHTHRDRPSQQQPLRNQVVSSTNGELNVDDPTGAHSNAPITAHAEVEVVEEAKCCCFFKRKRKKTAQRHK
Insulin-like growth factor 1 receptor, sequence (P08069 31-736 limits assumed): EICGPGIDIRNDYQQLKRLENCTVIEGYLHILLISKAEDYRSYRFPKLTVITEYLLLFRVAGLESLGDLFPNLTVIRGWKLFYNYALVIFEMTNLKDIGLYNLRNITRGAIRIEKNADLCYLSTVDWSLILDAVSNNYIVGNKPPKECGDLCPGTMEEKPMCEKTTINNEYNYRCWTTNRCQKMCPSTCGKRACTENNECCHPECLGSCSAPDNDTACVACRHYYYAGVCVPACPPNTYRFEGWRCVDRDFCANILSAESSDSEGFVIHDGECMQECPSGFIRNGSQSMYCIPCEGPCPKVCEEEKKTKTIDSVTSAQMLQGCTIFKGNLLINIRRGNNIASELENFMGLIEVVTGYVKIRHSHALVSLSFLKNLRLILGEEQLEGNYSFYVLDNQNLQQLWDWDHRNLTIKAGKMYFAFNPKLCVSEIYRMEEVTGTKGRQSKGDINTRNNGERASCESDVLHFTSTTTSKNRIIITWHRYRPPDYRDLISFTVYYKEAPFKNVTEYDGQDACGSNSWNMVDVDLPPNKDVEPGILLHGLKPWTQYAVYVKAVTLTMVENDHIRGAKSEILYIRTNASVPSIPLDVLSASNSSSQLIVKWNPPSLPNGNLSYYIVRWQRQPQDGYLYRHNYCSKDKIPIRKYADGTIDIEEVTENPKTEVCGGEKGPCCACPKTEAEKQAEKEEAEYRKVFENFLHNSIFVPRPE
Insulin-like growth factor 1 receptor, sequence (P08069 741-1367 limits assumed): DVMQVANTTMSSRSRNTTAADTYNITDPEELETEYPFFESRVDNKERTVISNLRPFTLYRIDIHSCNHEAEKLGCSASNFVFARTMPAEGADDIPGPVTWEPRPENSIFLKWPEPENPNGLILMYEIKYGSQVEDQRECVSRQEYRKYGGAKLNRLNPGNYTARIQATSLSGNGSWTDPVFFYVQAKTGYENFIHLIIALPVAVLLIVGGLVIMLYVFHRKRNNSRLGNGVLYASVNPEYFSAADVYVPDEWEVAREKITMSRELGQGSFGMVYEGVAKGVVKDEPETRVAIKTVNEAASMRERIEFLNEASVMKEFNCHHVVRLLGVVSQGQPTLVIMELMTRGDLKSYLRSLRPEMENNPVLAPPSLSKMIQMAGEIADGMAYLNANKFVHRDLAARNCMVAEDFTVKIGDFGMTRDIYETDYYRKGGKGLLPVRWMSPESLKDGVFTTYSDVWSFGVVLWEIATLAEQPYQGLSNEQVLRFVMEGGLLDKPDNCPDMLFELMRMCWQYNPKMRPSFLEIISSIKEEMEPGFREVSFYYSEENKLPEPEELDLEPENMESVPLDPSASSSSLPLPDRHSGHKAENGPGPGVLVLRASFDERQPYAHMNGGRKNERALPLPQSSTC
Mitogen-activated protein kinase 8, sequence (P45983 whole entry, canonical isoform): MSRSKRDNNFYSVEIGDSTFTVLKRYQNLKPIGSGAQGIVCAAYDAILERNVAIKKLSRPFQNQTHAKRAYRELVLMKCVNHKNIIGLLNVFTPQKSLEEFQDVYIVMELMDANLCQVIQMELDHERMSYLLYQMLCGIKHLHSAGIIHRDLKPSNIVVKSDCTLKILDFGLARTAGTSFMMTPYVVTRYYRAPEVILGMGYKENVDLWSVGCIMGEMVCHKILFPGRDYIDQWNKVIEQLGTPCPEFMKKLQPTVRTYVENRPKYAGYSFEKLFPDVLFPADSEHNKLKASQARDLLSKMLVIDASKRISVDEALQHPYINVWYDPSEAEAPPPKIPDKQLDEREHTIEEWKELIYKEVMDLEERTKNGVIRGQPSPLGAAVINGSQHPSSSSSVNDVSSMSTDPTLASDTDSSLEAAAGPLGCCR
Calcium/calmodulin-dependent protein kinase type 1, sequence (Q14012 whole entry): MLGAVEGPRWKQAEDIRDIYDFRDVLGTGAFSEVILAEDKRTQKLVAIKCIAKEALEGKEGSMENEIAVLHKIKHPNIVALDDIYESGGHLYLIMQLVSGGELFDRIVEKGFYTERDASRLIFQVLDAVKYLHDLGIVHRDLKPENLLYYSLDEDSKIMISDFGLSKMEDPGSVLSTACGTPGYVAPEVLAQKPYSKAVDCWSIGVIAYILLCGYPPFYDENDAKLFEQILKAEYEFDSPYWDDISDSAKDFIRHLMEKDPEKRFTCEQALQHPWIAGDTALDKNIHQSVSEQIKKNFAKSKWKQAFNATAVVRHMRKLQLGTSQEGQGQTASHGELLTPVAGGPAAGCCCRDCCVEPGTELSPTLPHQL

As to `COc1ccc(-c2nnc(NC(=O)c3ccc(F)cc3)o2)cc1`, the concentration giving a half-maximal response (EC50) in assay [1] was 0.305 µM (active); in [2] it was > 150 µM (not active); in [3], 38.1 µM (active); in [4] it was 61.7 µM (active).

In the case of `CCn1c(-c2nonc2N)nc2cnc(Oc3cccc(NC(=O)c4ccc(OCCN5CCOCC5)cc4)c3)cc21` [GSK-269962A], the Ki in [5] is > 7.94 µM (inactive); in assay [6], > 1.58 µM (inactive); in assay [7], > 7.94 µM (inactive); in [8] it was > 1.26 µM (inactive); in assay [9], > 2 µM (inactive); in assay [10], > 2.51 µM (inactive). Besides, the Ki in assay [11] was > 0.794 µM (inactive); in assay [12], 0.0251 µM (active); in assay [13], > 5.01 µM (inactive); in assay [14], > 10 µM (inactive); in [15] it was > 7.94 µM (inactive); in [16], > 3.98 µM (inactive). Also, the Ki was > 3.16 µM (inactive) in assay [17]; > 6.31 µM (inactive) in [18]; > 1.58 µM (inactive) in assay [19]; > 1.58 µM (inactive) in [20]; > 2 µM (inactive) in [21]; > 1.26 µM (inactive) in [22]. Also, the Ki in assay [23] is > 7.94 µM (inactive); in [24] it was 0.0794 µM (active); in assay [25], 1.58 µM (active); in [26], 0.501 µM (active); in [27], 2.51 µM (active); in [28], > 7.94 µM (inactive). Besides, the Ki was 0.251 µM (active) in assay [29]; > 5.01 µM (inactive) in [30]; > 10 µM (inactive) in [31]; > 2 µM (inactive) in assay [32]; > 3.98 µM (inactive) in assay [33]; > 6.31 µM (inactive) in [34]. Moreover, the Ki was 0.00501 µM (active) in [35]; 0.158 µM (active) in assay [36]; > 6.31 µM (inactive) in assay [37]; > 6.31 µM (inactive) in assay [38]; 0.0316 µM (active) in assay [39]; 0.0501 µM (active) in assay [40]. Besides, the Ki in assay [41] and in assay [42] was > 2 µM (inactive) in each case.

(Values after ChEMBL document CHEMBL1201862, “PubChem BioAssay data set” (2004).)
